The values below come from ChEMBL document CHEMBL5236637, “Expanding the Chemical Space of Drug-like Passerini Compounds: Can α-Acyloxy Carboxamides Be Considered Hard Drugs?” (ACS Med Chem Lett, 2022).

Series [1] in a line: Hydrolytic stability in mouse liver microsomes assessed as esterase-mediated compound hydrolysis by measuring residual substrate activity incubated for 30 mins by LC-HRMS analysis. It counts as ADME, Microsome. The conditions noted are these: for Stability: microsomes, 0.5 h. (In general: Liver microsomes are vesicles of endoplasmic reticulum, rich in cytochrome P450 enzymes.)

A further series deals with Pseudomonas aeruginosa. Put plainly: Antibacterial activity against Pseudomonas aeruginosa ATCC 9027 assessed inhibition zone at 1 mg/ml preincubated at room temperature for 1 hr and measured after 24 hrs by agar well-diffusion method. It counts as functional. The settings on record: time 25.0 hrs. Background: In agar diffusion tests the substance spreads into inoculated agar from a disc or well.

Turning to `COC(=O)c1c(C)cccc1C`, the Stability entry in series [1] is “Stable”.

Regarding `CC(C)(C)NC(=O)COC(=O)c1ccccc1-c1ccccc1`, the remaining at 0.5 h in series [1] (liver microsomes, read-out: Stability) amounted to 81%.

As to `COC(=O)c1ccccc1` [METHYL BENZOATE], the Stability entry in series [1] is on record as “Unstable”.

For GENTAMICIN, the inhibition zone (IZ) in the series with Pseudomonas aeruginosa stood at 22.3 mm.
